Measured values published in patent US20070276034A1, “Compounds, compositions and methods for the treatment of synucleinopathies” (priority 2002, published 2007).
Where two headings read alike, the source gives them in different places.

Columns and labels:
Format in all cases: biochemical
Aβ 1-42 fibrils = target: T1, Aβ 1-42 fibrils (Homo sapiens, UniProt P05067); test: Thioflavin T fluorometry - disruption of pre-formed Aβ 1-42 Alzheimer's fibrils; conditions: 25 μM pre-fibrillized Aβ 1-42, 37° C., 3 days; for inhibition: read-out: % Inhibition Aβ (result ± S.D.)
T1 construct: purchased Bachem Inc
T1 sequence (P05067 672-713): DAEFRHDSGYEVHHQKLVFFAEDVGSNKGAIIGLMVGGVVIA
In short: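 Pre-fibrillized Aβ1-42 (25 µM) incubated 3 days at 37 °C alone or with compound at Aβ:compound weight ratios 1:1 to 1:0.001. Remaining fibrils quantified by Thioflavin T fluorescence (ex 444/em 485 nm) in phosphate buffer pH 6.8, blank-subtracted for buffer or compound alone.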

IAPP fibrils [1] = target: T2, IAPP fibrils (Homo sapiens, UniProt P10997); test: Congo red binding assay with IAPP fibrils; conditions: 3-day incubation
T2 construct: purchased Bachem Inc
T2 sequence (P10997 34-70 limits assumed): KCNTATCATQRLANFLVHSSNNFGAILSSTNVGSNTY
In short: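 IAPP incubated 3 days with test compounds or EDTA at IAPP:compound weight ratios of 1:1, 1:0.1, 1:0.01 or 1:0.001, then vacuum-filtered (0.2 μm). Filter-retained IAPP stained with Congo red and washed; reduced staining versus IAPP without compound read as less aggregated, congophilic IAPP.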

NAC fibrils = target: T3, NAC fibrils (Homo sapiens, UniProt P37840); test: Thioflavin T fluorometry - disruption of Parkinson's disease NAC fibrils; conditions: 3 days; for inhibition / % Inhibition NAC (result ± S.D.): 25 μM pre-fibrillized NAC, 37° C.; for inhibition: read-out: % Inhibition NAC (result ± S.D.); for disruption/disassembly of pre-formed NAC fibrils (in words): all concentrations tested (ratios 1:1 to 1:0.001)
T3 construct: NAC is a 35-amino acid fragment of α-synuclein; purchased Bachem Inc
Procedure: In this assay, Thioflavin T binds specifically to NAC fibrils, and this binding produces a fluorescence enhancement at 485 nm that is directly proportional to the amount of NAC fibrils present. The higher the fluorescence, the greater the amount of NAC fibrils present (Naki et al, Lab. Invest. 65:104-110, 1991; Levine III, Protein Sci. 2:404-410, 1993; Amyloid: Int. J. Exp. Clin. Invest. 2:1-6, 1995).
In this study, 25 μM of pre-fibrillized NAC (Bachem Inc) was incubated at 37° C. for 3 days either alone or in the presence of dihydroxy synthetic analog compounds #1, 3, 23, 26, 52, 63, 66, 67, or EDTA (at NAC:test compound weight ratios of 1:1, 1:0.1, 1:0.01 or 1:0.001). Following 3-days of co-incubation, 50 βl of each incubation mixture was transferred into a 96-well microtiter plate containing 150 μl of distilled water and 50 μl of a Thioflavin T solution (i.e. 500 mM Thioflavin T in 250 mM phosphate buffer, pH 6.8). The fluorescence was read at 485 nm (444 nm excitation wavelength) using an ELISA plate fluorometer after subtraction with buffer alone or compound alone, as blank.

IAPP fibrils [2] = target: T2, IAPP fibrils; test: Thioflavin T fluorometry - disruption of type 2 diabetes IAPP fibrils; conditions: 25 μM pre-fibrillized IAPP, 37° C., 3 days; for inhibition: read-out: % Inhibition IAPP (result ± S.D.)
In short: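 Pre-fibrillized human IAPP (25 μM) incubated 3 days at 37 °C alone or with compound at IAPP:compound weight ratios of 1:1 to 1:0.001. Mixtures then mixed with Thioflavin T in phosphate buffer pH 6.8; fluorescence read at 485 nm (ex 444 nm) after blank subtraction.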

[3] = Aβ:test compound wt/wt ratio 1:0.001
[4] = Aβ:test compound wt/wt ratio 1:0.01
[5] = Aβ:test compound wt/wt ratio 1:0.1
[6] = Aβ:test compound wt/wt ratio 1:1
[7] = IAPP:test compound wt/wt ratio 1:0.001
[8] = IAPP:test compound wt/wt ratio 1:0.01
[9] = IAPP:test compound wt/wt ratio 1:0.1
[10] = IAPP:test compound wt/wt ratio 1:1
[11] = NAC:test compound wt/wt ratio 1:0.001
[12] = NAC:test compound wt/wt ratio 1:0.01
[13] = NAC:test compound wt/wt ratio 1:0.1
[14] = NAC:test compound wt/wt ratio 1:1

| inhibition (NAC fibrils; [11]) [%] | inhibition (NAC fibrils; [12]) [%] | inhibition (NAC fibrils; [14]) [%] | Compound | inhibition (Aβ 1-42 fibrils; [3]) [%] | inhibition (Aβ 1-42 fibrils; [4]) [%] | inhibition (Aβ 1-42 fibrils; [5]) [%] | inhibition (Aβ 1-42 fibrils; [6]) [%] | % Inhibition IAPP (result ± S.D.), Congo red binding (IAPP fibrils [1]; [7]) [%] | % Inhibition IAPP (result ± S.D.), Congo red binding (IAPP fibrils [1]; [8]) [%] | % Inhibition IAPP (result ± S.D.), Congo red binding (IAPP fibrils [1]; [9]) [%] | % Inhibition IAPP (result ± S.D.), Congo red binding (IAPP fibrils [1]; [10]) [%] | inhibition (IAPP fibrils [2]; [7]) [%] | inhibition (IAPP fibrils [2]; [8]) [%] | inhibition (IAPP fibrils [2]; [9]) [%] | inhibition (IAPP fibrils [2]; [10]) [%] | disruption/disassembly of pre-formed NAC fibrils (in words) (NAC fibrils) | also measured |
| --- | --- | --- | --- | --- | --- | --- | --- | --- | --- | --- | --- | --- | --- | --- | --- | --- | --- |
| 0 | 56.8 ± 4.6 | 70.4 ± 3.22 | O=C(N[C@@H]1CCCC[C@H]1NC(=O)c1ccc(O)c(O)c1)c1ccc(O)c(O)c1 (relative stereo) [Compound 26, N,N′-bis(3,4-dihydroxybenzoyl)-trans-1,2-diaminocyclohexane] | 0 | 0 | 11.7 ± 3.67 | 37.8 ± 5.5 | 10.8 ± 2.63 | 5.3 ± 6.14 | 7.5 ± 2.83 | 0.0 ± 1.21 | 3.7 ± 4.67 | 24.6 ± 6.77 | 45.9 ± 17.7 | 52.5 ± 2.44 |  | inhibition (NAC fibrils; [13]): 61.3 ± 6.52% |
| 0 | 68.2 ± 2.55 | 100 ± 1 | O=C(c1ccc(O)c(O)c1)C(O)c1ccc(O)c(O)c1 (centres unmarked) [Compound 1, 3,4,3′,4′-tetrahydroxybenzoin] | 0 | 19.2 ± 4.31 | 64.8 ± 1.98 | 97.3 ± 0.23 |  | 18.6 ± 4.05 | 10.6 ± 3.40 | 40.7 ± 2.49 | 6.4 ± 4.4 | 57.3 ± 0.16 | 93 ± 1.27 | 99 ± 0.11 | dose-dependent disruption/disassembly | inhibition (NAC fibrils; [13]): 99.5 ± 0.53% |
|  |  |  | Oc1ccc(Cc2ccc(O)c(O)c2)cc1O [Compound 3, 3,4,3′,4′-tetrahydroxydiphenylmethane] |  |  |  |  | 11.1 ± 5.26 | 16.3 ± 1.13 | 37.9±3.10 | 55.5±2.68 |  |  |  |  | dose-dependent disruption/disassembly | % Inhibition Aβ (result ± S.D.) (Aβ 1-42 fibrils; [3]): 5.5 ± 1.99%; % Inhibition Aβ (result ± S.D.) (Aβ 1-42 fibrils; [4]): 53.1 ± 1.67%; % Inhibition Aβ (result ± S.D.) (Aβ 1-42 fibrils; [5]): 57.8±6.36%; % Inhibition Aβ (result ± S.D.) (Aβ 1-42 fibrils; [6]): 99.5 ± 0.10%; % Inhibition NAC (result ± S.D.) (NAC fibrils; [11]): 67.3 ± 6.37%; % Inhibition NAC (result ± S.D.) (NAC fibrils; [12]): 93.9±0.77%; % Inhibition NAC (result ± S.D.) (NAC fibrils; [13]): 91.0±1.99%; % Inhibition NAC (result ± S.D.) (NAC fibrils; [14]): 98.0 ± 1.78%; % Inhibition IAPP (result ± S.D.) (IAPP fibrils [2]; [7]): 30.7 ± 6.71%; % Inhibition IAPP (result ± S.D.) (IAPP fibrils [2]; [8]): 79.9±1.47%; % Inhibition IAPP (result ± S.D.) (IAPP fibrils [2]; [9]): 97.7±0.19%; % Inhibition IAPP (result ± S.D.) (IAPP fibrils [2]; [10]): 100 ± 0.20% |
|  |  |  | O=C(NCc1ccc(O)c(O)c1)C(=Cc1ccc(O)c(O)c1)NC(=O)c1ccc(O)c(O)c1 [Compound 21, α-(3,4-dihydroxybenzamido)-3,4-dihydroxycinnamic acid 3,4-dihydroxybenzyl amide] | 8.9 ± 2.13 | 48.2 ± 8.29 | 81 ± 1.31 | 98.6 ± 0.54 | 0.0 ± 2.10 | 5.1 ± 4.53 | 10.4 ± 3.53 | 35.9 ± 0.21 | 5.4 ± 15.4 | 25.8 ± 3.61 | 85.4 ± 0.86 | 98.5 ± 0.06 |  |  |
| 0 | 35.6 ± 9.73 | 58 ± 8.43 | O=C(c1ccc(O)c(O)c1)N1CCN(C(=O)c2ccc(O)c(O)c2)CC1 [Compound 23, 1,4-bis(3,4-dihydroxybenzoyl)piperazine] | 0 | 16.5 ± 4.02 | 26.2 ± 4.37 | 46.7 ± 4.62 | 5.1 ± 2.45 | 9.3 ± 1.40 | 4.5 ± 4.12 | 5.5 ± 2.33 | 27.3 ± 45.4 | 44.3 ± 32.5 | 67.2 ± 18.4 | 85.2 ± 0.55 |  |  |
|  |  |  | O=C(Nc1ccc(O)c(O)c1)c1ccc(O)c(O)c1 [Compound 51, 3,4-dihydroxybenzoic acid 3,4-dihydroxyanilide] | 29 ± 25.2 | 55.3 ± 5.23 | 94.9 ± 0.24 | 99.4 ± 0.05 | 1.6 ± 1.01 | 3.6 ± 2.59 | 27.5 ± 3.49 | 55.6 ± 1.48 | 11.8 ± 6.45 | 56.6 ± 1.69 | 96.6 ± 1 | 99.9 ± 0.11 |  |  |
|  |  |  | O=C(Nc1ccc(O)c(O)c1)Nc1ccc(O)c(O)c1 [Compound 76, 1,3-bis(3,4-dihydroxyphenyl)urea] | 12.2 ± 5.98 | 40.9 ± 3.76 | 86.5 ± 1.18 | 99.3 ± 1.35 | 3.4 ± 1.07 | 14.2 ± 2.25 | 16.5 ± 2.60 | 53.9 ± 5.44 | 9 ± 0.32 | 41.5 ± 6.67 | 87.5 ± 1.89 | 99.6 ± 1.01 |  |  |

| Compound | inhibition (NAC fibrils; [11]) [%] | inhibition (NAC fibrils; [12]) [%] | inhibition (NAC fibrils; [14]) [%] | inhibition (Aβ 1-42 fibrils; [3]) [%] | inhibition (Aβ 1-42 fibrils; [4]) [%] | inhibition (Aβ 1-42 fibrils; [5]) [%] | inhibition (Aβ 1-42 fibrils; [6]) [%] | % Inhibition IAPP (result ± S.D.), Congo red binding (IAPP fibrils [1]; [7]) [%] | % Inhibition IAPP (result ± S.D.), Congo red binding (IAPP fibrils [1]; [8]) [%] | % Inhibition IAPP (result ± S.D.), Congo red binding (IAPP fibrils [1]; [9]) [%] | % Inhibition IAPP (result ± S.D.), Congo red binding (IAPP fibrils [1]; [10]) [%] | inhibition (IAPP fibrils [2]; [7]) [%] | inhibition (IAPP fibrils [2]; [8]) [%] | inhibition (IAPP fibrils [2]; [9]) [%] | inhibition (IAPP fibrils [2]; [10]) [%] | disruption/disassembly of pre-formed NAC fibrils (in words) (NAC fibrils) | also measured |
| --- | --- | --- | --- | --- | --- | --- | --- | --- | --- | --- | --- | --- | --- | --- | --- | --- | --- |
| O=C(Nc1ccc(O)c(O)c1)C(=O)Nc1ccc(O)c(O)c1 [Compound 63, oxalic acid bis(3,4-dihydroxyanilide)] | 17.3 ± 12.6 | 33 ± 1.69 | 45.6 ± 31 | 1.6 ± 9.47 | 57.5 ± 10.6 | 23.6 ± 25.8 | 85.3 ± 0.91 | 0.0 ± 2.25 | 11.7 ± 2.26 | 4.5 ± 1.62 | 15.4 ± 1.34 | 19 ± 0.3 | 56.2 ± 8.77 | 84.2 ± 1.16 | 94.9 ± 0.65 | dose-dependent disruption/disassembly |  |
